In ChEMBL document CHEMBL1131428, “Immunophilins: beyond immunosuppression” (J Med Chem, 1998):

Tests used:
[1] = biological target: Peptidyl-prolyl cis-trans isomerase FKBP1A (Homo sapiens, UniProt P62942); assay: Compound was tested for its ability to inhibit FK506 binding protein 12 rotamase activity
Gallus gallus = species: Gallus gallus; assay: In Vitro neurotrophic effect was measured in cultured chick DRG sensory neurons.; format: functional; conditions: read-out: ED50 (the source's name)
Rattus norvegicus [2] = species: Rattus norvegicus; assay: Compound was evaluated for the regrowth of Striatal dopamine neurons in 6HODA-lesioned rats at 7 days; format: functional, organism-based
Rattus norvegicus [3] = species: Rattus norvegicus; assay: Compound was evaluated for the regrowth of Striatal dopamine neurons in 6HODA-lesioned rats at 60 days; format: functional, organism-based
Rattus norvegicus [4] = species: Rattus norvegicus; assay: Compound was evaluated for the regrowth of Striatal dopamine neurons in 6HODA-lesioned rats at 28 days; format: functional, organism-based
Mus musculus [5] = assay: Compound was evaluated for the recovery of Striatal TH immunostaining in MPTP-treated mice by concurrent treatment after 40 mg/kg sc administration.; format: functional, organism-based; design: dose 40 mg/kg; conditions: at 40 mg/kg
Rattus norvegicus [6] = species: Rattus norvegicus; assay: Compound was evaluated for the regrowth of Striatal dopamine neurons in 6HODA-lesioned rats at 1h.; format: functional, organism-based
Rattus norvegicus [7] = species: Rattus norvegicus; assay: Compound was evaluated for the regrowth of Striatal dopamine neurons in 6HODA-lesioned rats at 120 days; format: functional, organism-based
Rattus norvegicus [8] = assay: Mean axonal area to promote nerve regeneration in rats with lesioned sciatic nerves was measured after 1 mg/kg sc daily administration.; format: functional; conditions: route subcutaneous
Rattus norvegicus [9] = assay: Mean axonal area to promote nerve regeneration in rats with lesioned sciatic nerves was measured after 2 mg/kg sc daily administration.; format: functional; conditions: route subcutaneous
Rattus norvegicus [10] = assay: Mean axonal area to promote nerve regeneration in rats with lesioned sciatic nerves was measured after 10 mg/kg sc daily administration.; format: functional; conditions: route subcutaneous
Rattus norvegicus [11] = assay: Axonal regeneration rate to promote nerve regeneration in rats with lesioned sciatic nerves was measured after 1 mg/kg sc daily administration.; format: functional; conditions: route subcutaneous
Rattus norvegicus [12] = assay: Axonal regeneration rate to promote nerve regeneration in rats with lesioned sciatic nerves was measured after 5 mg/kg sc daily administration.; format: functional; conditions: route subcutaneous
Rattus norvegicus [13] = assay: Axonal regeneration rate to promote nerve regeneration in rats with lesioned sciatic nerves was measured after 10 mg/kg sc daily administration.; format: functional; conditions: route subcutaneous
Rattus norvegicus [14] = assay: Mean axonal area to promote nerve regeneration in rats with lesioned sciatic nerves was measured after 5 mg/kg sc daily administration.; format: functional; conditions: route subcutaneous
Mus musculus [15] = assay: Compound was evaluated for the recovery of Striatal TH immunostaining in MPTP-treated mice by concurrent treatment after 4 mg/kg sc administration.; format: functional, organism-based; design: dose 4 mg/kg; conditions: at 4 mg/kg

Peptidyl-prolyl cis-trans isomerase FKBP1A, sequence (P62942 whole entry): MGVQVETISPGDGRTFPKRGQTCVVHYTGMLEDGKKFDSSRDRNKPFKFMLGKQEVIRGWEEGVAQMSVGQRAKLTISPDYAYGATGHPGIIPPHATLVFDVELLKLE

SMILES	Ki [1] [nM]	EC50 (Gallus gallus) [nM]	other results
CC(C)(C)C(=O)C(=O)N1CCCCC1C(=O)OCCCC1CCCCC1 (stereo not given)	32	0.29	–
CCC(C)(C)C(=O)C(=O)N1CCCC1C(=O)OCCCc1cccnc1 (stereo not given)	7.5	0.05	Recovery (Rattus norvegicus [2]): 25.5%; Recovery (Rattus norvegicus [3]): 17.3%; Recovery (Rattus norvegicus [4]): 28.1%; Recovery (Mus musculus [5]): 67.5%; Recovery (Rattus norvegicus [6]): 34.2%; Recovery (Rattus norvegicus [7]): 19.5%
C=CC[C@@H]1/C=C(\C)CC(C)C[C@H](OC)[C@H]2O[C@@](O)(C(=O)C(=O)N3CCCC[C@H]3C(=O)O[C@H](/C(C)=C/[C@@H]3CC[C@@H](O)[C@H](OC)C3)[C@H](C)[C@@H](O)CC1=O)[C@H](C)C[C@@H]2OC (single isomer, unassigned) [TACROLIMUS ANHYDROUS]	–	0.5	Mean axonal area (Rattus norvegicus [8]): 67; Mean axonal area (Rattus norvegicus [9]): 83; Mean axonal area (Rattus norvegicus [10]): 100; Axonal regeneration rate (Rattus norvegicus [11]): 16; Axonal regeneration rate (Rattus norvegicus [12]): 34; Axonal regeneration rate (Rattus norvegicus [13]): 29; Mean axonal area (Rattus norvegicus [14]): 120
O=C(C(=O)N1CCCC1C(=O)OCCCc1cccnc1)C1CCCCC1 (stereo not given)	–	2	–
COc1cc(C(=O)C(=O)N2CCCCC2C(=O)OC(CCCc2ccccc2)CCCc2ccccn2)cc(OC)c1OC (stereo not given)	–	0.05	–
CCC(C)(C)C(=O)C(=O)N1CCCCC1C(=O)O[C@H](CCc1ccccc1)c1ccccc1 (stereo not given in full)	–	0.3	–
CCC(C)(C)C(=O)C(=O)N1CCCC1C(=O)OCCc1cc(OC)c(OC)c(OC)c1 (stereo not given)	120	–	–
CCC(C)(C)C(=O)C(=O)N1CCCC1C(=O)OCCCc1ccc2c(c1)OCO2 (stereo not given)	170	10	–
CCC(C)(C)C(=O)C(=O)N1CCCCC1C(=O)OCCCC1CCCCC1 (stereo not given)	–	1	–
CCC(C)(C)C(=O)C(=O)N1CCCCC1C(=O)OCCCc1cccnc1 (stereo not given)	130	8.5	–
COC(=O)C1CCCCN1C(=O)C(=O)c1ccccc1 (stereo not given)	> 10000	> 10000	–
COc1ccc(CCCCOC(=O)C2CCCCN2C(=O)C(=O)C2CCCCC2)cc1 (stereo not given)	103	6	–
CC(C)(C)C(=O)C(=O)N1CCCCC1C(=O)OC(CCCc1ccccc1)CCCc1ccccc1 (stereo not given)	–	–	Recovery (Mus musculus [5]): 43.8%
CCC(C)CNC(=O)N1CCCCC1C(=O)OCCCc1cccnc1 (stereo not given)	70	0.07	Recovery (Mus musculus [15]): 27.5%
CC(C)(C)C(=O)C(=O)N1CCCC1C(=O)OCCCc1cccnc1 (stereo not given)	3	–	–
CC(C)(C)C(=O)C(=O)N1CCCCC1C(=O)OC1C2CC3CC(C2)CC1C3 (stereo not given)	78	0.11	–
CCC(C)(C)C(=O)C(=O)N1CCCC1C(=O)OCCCc1ccccn1 (stereo not given)	195	0.075	–
CCC(OC(=O)C1CCCCN1C(=O)C(=O)C(C)(C)CC)C(CCc1ccccc1)c1ccc(OC)cc1 (stereo not given)	15	0.17	–
CC[C@@H]1/C=C(/C)[C@@H](O)[C@@H](C)C[C@H](OC)[C@H]2O[C@@](O)(C(=O)C(=O)N3CCCC[C@H]3C(=O)O[C@H](/C(C)=C/[C@@H]3CC[C@@H](O)[C@H](OC)C3)[C@H](C)[C@@H](O)CC1=O)[C@H](C)C[C@@H]2OC	0.7	5	–
CCC(C)(C)NC(=O)N1CCCC1C(=O)OCCCc1cccnc1 (stereo not given)	742	1	–

SMILES	Ki [1] [nM]	EC50 (Gallus gallus) [nM]	other results
COC(=O)C(=O)N1CCCCC1C(=O)OCCCC1CCCCC1 (stereo not given)	–	> 10000	–
O=C(OCCCc1cccnc1)C1CCCN1C(=O)NC1CCCCC1 (stereo not given)	1480	–	Recovery (Mus musculus [15]): 59.8%
O=C(C(=O)N1CCCCC1C(=O)OC(CCCc1ccccc1)CCCc1ccccc1)c1ccccc1 (stereo not given)	3	–	–
O=C(C(=O)N1CCCCC1C(=O)OCCCc1cccnc1)c1ccccc1 (stereo not given)	725	0.8	–
O=C(OCCCCc1ccccc1)C1CCCCN1S(=O)(=O)Cc1ccccc1 (stereo not given)	–	0.03	Recovery (Mus musculus [15]): 38%
CCC(C)(C)C(=O)C(=O)N1CCCCC1C(=O)OCCCc1cc(OC)c(OC)c(OC)c1 (stereo not given)	25	–	–
Cc1ccc(S(=O)(=O)N2CCCCC2C(=O)OCCCCc2ccccc2)cc1 (stereo not given)	–	–	Recovery (Mus musculus [15]): 44.2%
O=C(OCCCc1cccnc1)C1CCCN1C(=S)NC1C2CC3CC(C2)CC1C3 (stereo not given)	116	0.14	Recovery (Mus musculus [15]): 52.3%
CC(C)(C)C(=O)C(=O)N1CCCCC1C(=O)OCCCc1ccccc1 (stereo not given)	–	–	Recovery (Mus musculus [5]): 32.4%
CCC(C)(C)C(=O)C(=O)N1CCCCC1C(=O)OCCCc1ccccc1 (stereo not given)	250	–	–
CCC(C)(C)C(=O)C(=O)N1CCCC1C(=O)OC/C=C/c1cc(OC)ccc1OC (stereo not given)	450	0.8	–
O=C(C(=O)N1CCCCC1C(=O)OCCCc1ccccc1)C1CCCCC1 (stereo not given)	210	0.82	–
O=C(OCCCc1cccnc1)C1CCCN1C(=S)NC1CCCCC1 (stereo not given)	131	0.3	Recovery (Mus musculus [15]): 56.1%
COC(=O)C(=O)N1CCCCC1C(=O)OCc1ccccc1 (stereo not given)	8000	> 10000	–
CCC(C)(C)C(=O)C(=O)N1CCCCC1C(=O)OCCC(c1ccccc1)c1ccccc1 (stereo not given)	8.3	–	–
C/C=C/C[C@@H](C)[C@@H](O)[C@H]1C(=O)N[C@@H](CC)C(=O)N(C)CC(=O)N(C)[C@@H](CC(C)C)C(=O)N[C@@H](C(C)C)C(=O)N(C)[C@@H](C)C(=O)N[C@@H](C)C(=O)N[C@H](C)C(=O)N(C)[C@@H](CC(C)C)C(=O)N(C)[C@@H](CC(C)C)C(=O)N(C)[C@@H](C(C)C)C(=O)N1C	50	–	–
COc1cc(C(=O)C(=O)N2CCCCC2C(=O)OCCCc2c[nH]c3ccccc23)cc(OC)c1OC (stereo not given)	–	0.06	–
CCC(C)(C)C(=O)C(=O)N1CCCC1C(=O)OCCCc1cc(OC)ccc1OC (stereo not given)	250	2	–
COc1ccc(CCCCOC(=O)C2CCCCN2C(=O)C(=O)c2cc(OC)c(OC)c(OC)c2)cc1 (stereo not given)	–	0.03	–
Cc1ccc(S(=O)(=O)N2CCCCC2C(=O)OC(CCCc2ccccc2)CCCc2ccccc2)cc1 (stereo not given)	332	1	–

SMILES	Ki [1] [nM]	EC50 (Gallus gallus) [nM]	other results
O=C(C(=O)N1CCCCC1C(=O)OCCCC1CCCCC1)C1CCCCC1 (stereo not given)	760	1	–
CCOC(=O)C1CCCCN1C(=O)C(C)=O (stereo not given)	> 10000	> 10000	–
COc1cc(C(=O)C(=O)N2CCCCC2C(=O)OC(CCCc2ccccc2)CCc2cccnc2)cc(OC)c1OC (stereo not given)	–	0.95	–
CC(C)(C)C(=O)C(=O)N1CCCC1C(=O)OCCCc1ccccc1 (stereo not given)	95	–	–
COc1ccc(CCCCOC(=O)C2CCCCN2C(=O)C(=O)C(C)(C)C)cc1 (stereo not given)	24	–	Recovery (Mus musculus [5]): 58.9%
O=C(OCCCCc1ccccc1)C1CCCCN1S(=O)(=O)c1ccccc1 (stereo not given)	–	–	Recovery (Mus musculus [15]): 29.2%
CCC(C)(C)C(=O)C(=O)N1CCCC1C(=O)OCCCC1CCCCC1 (stereo not given)	194	0.257	–
O=C(OC(CCCc1ccccc1)Cc1ccccc1)C1CCCCN1S(=O)(=O)Cc1ccccc1 (stereo not given)	107	0.133	–
CCC(C)(C)C(=O)C(=O)N1CCCCC1C(=O)OC(CCc1ccccc1)CCc1ccccc1 (stereo not given)	–	–	Recovery (Mus musculus [5]): 71.6%
O=C(OCCCc1cccnc1)C1CCCN1S(=O)(=O)Cc1ccccc1 (stereo not given)	72	–	Recovery (Mus musculus [15]): 44.3%
COC(=O)C(=O)N1CCCCC1C(=O)OCCCC1CCCC1 (stereo not given)	–	> 10000	–
CCC(C)(C)C(=O)C(=O)N1CCCCC1C(=O)OCCCCc1ccc(OC)cc1 (stereo not given)	60	–	–
CCC(C)(C)C(=O)C(=O)N1CCCC1C(=O)OCCCc1ccccc1 (stereo not given)	42	–	–
COC(=O)C(=O)N1CCCCC1C(=O)OCCCCC1CCCCC1 (stereo not given)	–	> 10000	–
O=C(C(=O)N1CCCCC1C(=O)OC(CCCc1ccccc1)CCCc1ccccn1)c1ccccc1 (stereo not given)	50	0.063	–
CCC(C)(C)C(=O)C(=O)N1CCCCC1C(=O)OCCCc1cc(OC)ccc1OC (stereo not given)	12	2.5	–
CCOC(=O)C1CCCCN1C(=O)C(=O)OC (stereo not given)	> 10000	–	–
CO[C@H]1C[C@@H]2CC[C@@H](C)[C@@](O)(O2)C(=O)C(=O)N2CCCC[C@H]2C(=O)O[C@H]([C@H](C)C[C@@H]2CC[C@@H](O)[C@H](OC)C2)CC(=O)[C@H](C)/C=C(\C)[C@@H](O)[C@@H](OC)C(=O)[C@H](C)C[C@H](C)/C=C/C=C/C=C/1C [SIROLIMUS]	–	0.5	–
CCOC(=O)C1CCCCN1C(=O)C(=O)C(C)(C)CC (stereo not given)	1300	–	–
